# Test results as given in ChEMBL document CHEMBL1147178, “Novel thiol-based TACE inhibitors: rational design, synthesis, and SAR of thiol-containing aryl sulfonamides” (Bioorg Med Chem Lett, 2007).
# How the values were obtained:
# [1] = target: Disintegrin and metalloproteinase domain-containing protein 17 (Homo sapiens, UniProt P78536); assay: Inhibition of TNF-alpha converting enzyme
# [2] = target: 72 kDa type IV collagenase (Homo sapiens, UniProt P08253); assay: Inhibition of MMP2
# Matrilysin = target: T1, Matrilysin (Homo sapiens, UniProt P09237); assay: Inhibition of MMP7
# T1 sequence (P09237 whole entry): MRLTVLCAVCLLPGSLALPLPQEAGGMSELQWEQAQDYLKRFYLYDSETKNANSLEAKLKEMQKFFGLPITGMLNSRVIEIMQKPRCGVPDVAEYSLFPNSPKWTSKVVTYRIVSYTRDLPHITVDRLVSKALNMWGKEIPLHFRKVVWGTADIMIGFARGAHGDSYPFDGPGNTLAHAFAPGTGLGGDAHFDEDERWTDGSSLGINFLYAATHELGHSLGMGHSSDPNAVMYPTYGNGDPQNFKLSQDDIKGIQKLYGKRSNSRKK
# Neutrophil collagenase = Neutrophil collagenase (Homo sapiens, UniProt P22894); assay: Inhibition of MMP8
# [3] = target: Matrix metalloproteinase-9 (Homo sapiens, UniProt P14780); assay: Inhibition of MMP9
# Collagenase 3 = Collagenase 3 (Homo sapiens, UniProt P45452); assay: Inhibition of MMP13
# Chain of 72 kDa type IV collagenase (P08253 whole entry): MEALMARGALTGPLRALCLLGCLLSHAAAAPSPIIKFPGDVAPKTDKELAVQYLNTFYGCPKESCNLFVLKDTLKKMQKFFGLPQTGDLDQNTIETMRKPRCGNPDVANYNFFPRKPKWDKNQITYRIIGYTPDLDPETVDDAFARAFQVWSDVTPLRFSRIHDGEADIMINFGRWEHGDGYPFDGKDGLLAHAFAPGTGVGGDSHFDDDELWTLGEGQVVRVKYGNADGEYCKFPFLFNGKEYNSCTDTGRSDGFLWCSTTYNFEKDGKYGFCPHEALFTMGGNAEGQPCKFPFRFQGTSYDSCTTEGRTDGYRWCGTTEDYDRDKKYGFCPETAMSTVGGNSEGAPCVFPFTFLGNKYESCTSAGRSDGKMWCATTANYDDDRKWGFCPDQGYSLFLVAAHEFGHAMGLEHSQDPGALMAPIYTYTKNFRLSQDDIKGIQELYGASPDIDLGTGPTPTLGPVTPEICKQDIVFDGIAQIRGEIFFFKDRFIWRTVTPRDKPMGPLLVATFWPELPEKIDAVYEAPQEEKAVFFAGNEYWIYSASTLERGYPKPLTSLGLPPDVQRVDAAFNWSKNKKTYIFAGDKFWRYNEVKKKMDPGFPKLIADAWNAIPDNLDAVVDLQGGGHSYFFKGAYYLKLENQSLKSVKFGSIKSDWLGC
# Chain of Disintegrin and metalloproteinase domain-containing protein 17 (P78536 whole entry, the tested form may be a part): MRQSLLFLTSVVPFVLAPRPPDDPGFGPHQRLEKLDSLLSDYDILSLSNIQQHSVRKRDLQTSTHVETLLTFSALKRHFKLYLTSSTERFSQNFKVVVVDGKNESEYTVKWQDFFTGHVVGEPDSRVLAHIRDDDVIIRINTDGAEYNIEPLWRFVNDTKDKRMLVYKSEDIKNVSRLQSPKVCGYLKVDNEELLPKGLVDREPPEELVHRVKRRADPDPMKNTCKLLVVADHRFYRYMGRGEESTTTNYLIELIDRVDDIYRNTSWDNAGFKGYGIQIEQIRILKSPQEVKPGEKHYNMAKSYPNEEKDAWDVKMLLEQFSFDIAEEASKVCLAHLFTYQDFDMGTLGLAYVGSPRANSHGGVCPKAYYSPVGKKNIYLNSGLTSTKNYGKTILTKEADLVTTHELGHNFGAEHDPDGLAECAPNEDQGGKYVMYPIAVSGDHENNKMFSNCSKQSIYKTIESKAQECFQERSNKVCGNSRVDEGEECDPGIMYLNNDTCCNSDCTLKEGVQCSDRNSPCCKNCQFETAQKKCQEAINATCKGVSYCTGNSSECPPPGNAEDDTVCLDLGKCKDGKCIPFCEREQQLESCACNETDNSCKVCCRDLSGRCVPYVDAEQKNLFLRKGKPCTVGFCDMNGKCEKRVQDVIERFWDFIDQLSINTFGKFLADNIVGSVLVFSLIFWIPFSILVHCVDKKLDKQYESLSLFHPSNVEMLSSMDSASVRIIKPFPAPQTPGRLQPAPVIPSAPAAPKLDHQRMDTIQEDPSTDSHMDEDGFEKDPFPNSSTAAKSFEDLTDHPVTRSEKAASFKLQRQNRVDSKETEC
# Chain of Matrix metalloproteinase-9 (P14780 whole entry, looked up): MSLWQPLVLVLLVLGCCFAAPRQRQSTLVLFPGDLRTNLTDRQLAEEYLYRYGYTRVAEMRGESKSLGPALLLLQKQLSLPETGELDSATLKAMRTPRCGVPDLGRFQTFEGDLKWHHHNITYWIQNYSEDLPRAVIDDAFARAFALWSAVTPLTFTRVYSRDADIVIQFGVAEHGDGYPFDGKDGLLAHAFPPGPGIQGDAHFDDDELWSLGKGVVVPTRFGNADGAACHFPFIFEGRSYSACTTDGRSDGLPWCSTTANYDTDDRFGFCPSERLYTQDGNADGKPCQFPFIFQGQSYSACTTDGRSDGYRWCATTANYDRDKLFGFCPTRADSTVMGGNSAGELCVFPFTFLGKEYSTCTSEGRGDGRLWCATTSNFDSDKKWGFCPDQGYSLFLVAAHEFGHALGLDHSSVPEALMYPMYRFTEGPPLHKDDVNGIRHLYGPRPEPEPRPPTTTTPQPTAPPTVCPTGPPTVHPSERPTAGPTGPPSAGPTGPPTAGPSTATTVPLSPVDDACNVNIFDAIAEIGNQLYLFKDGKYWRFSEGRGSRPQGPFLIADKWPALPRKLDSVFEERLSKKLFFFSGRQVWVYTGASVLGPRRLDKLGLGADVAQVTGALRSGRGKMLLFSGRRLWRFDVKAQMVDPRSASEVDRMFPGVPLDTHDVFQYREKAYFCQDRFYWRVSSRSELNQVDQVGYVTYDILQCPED
# Chain of Neutrophil collagenase (P22894 whole entry): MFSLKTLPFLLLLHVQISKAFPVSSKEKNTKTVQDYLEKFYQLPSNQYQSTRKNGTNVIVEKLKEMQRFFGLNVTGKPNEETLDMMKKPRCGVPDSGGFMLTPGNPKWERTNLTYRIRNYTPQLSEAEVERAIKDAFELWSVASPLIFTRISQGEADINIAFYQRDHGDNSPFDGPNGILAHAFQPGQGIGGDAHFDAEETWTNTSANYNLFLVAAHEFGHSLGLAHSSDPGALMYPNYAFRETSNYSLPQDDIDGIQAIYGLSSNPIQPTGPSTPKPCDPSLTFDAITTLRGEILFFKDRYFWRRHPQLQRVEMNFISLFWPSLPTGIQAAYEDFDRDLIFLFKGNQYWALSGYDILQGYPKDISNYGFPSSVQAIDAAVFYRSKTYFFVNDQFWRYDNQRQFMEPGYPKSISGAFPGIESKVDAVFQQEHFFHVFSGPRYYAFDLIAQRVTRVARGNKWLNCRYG
Ki [1],Ki [2],Ki (Matrilysin),Ki (Neutrophil collagenase),Ki [3],Ki (Collagenase 3),SMILES
27 nM,–,–,–,–,–,CC#CCOc1ccc(S(=O)(=O)N(C)C[C@H](C)S)cc1
13 nM,–,–,–,–,–,CC#CCOc1ccc(S(=O)(=O)N2CC(S)C2)cc1
52 nM,5700 nM,33000 nM,1300 nM,200 nM,2000 nM,CC#CCOc1ccc(S(=O)(=O)N(C)CCS)cc1
10 nM,27 nM,3400 nM,–,–,17 nM,CC#CCOc1ccc(S(=O)(=O)N(C)CC(=O)NO)cc1

# More lines, now with the values behind:
SMILES,Ki [1],Ki [2],Ki (Matrilysin),Ki (Neutrophil collagenase),Ki [3],Ki (Collagenase 3)
CC#CCNc1ccc(S(=O)(=O)N2CC(S)C2)cc1,11 nM,–,–,–,–,–
CC#CCNc1ccc(S(=O)(=O)N2CC[C@@H](S)C2)cc1,5 nM,–,–,–,–,–
CC#CCOc1ccc(S(=O)(=O)N2CC[C@@H](S)C2)cc1,–,5000 nM,> 6000 nM,–,–,1200 nM
O=S(=O)(c1ccc(OCC#CCN2CCCCC2)cc1)N1CC[C@@H](S)C1,530 nM,–,–,–,–,–
CN1CCN(CC#CCOc2ccc(S(=O)(=O)N3CC[C@@H](S)C3)cc2)CC1,3400 nM,–,–,–,–,–
CC#CCOc1ccc(S(=O)(=O)N2CCCC(S)C2)cc1 (racemic),55 nM,> 3000 nM,> 3000 nM,–,–,700 nM
